The text below walks through data of article PMC6685981, “Avenanthramide A triggers potent ROS-mediated anti-tumor effects in colorectal cancer by directly targeting DDX3” (Cell Death & Disease, 2019).

The assay has as its target T1, DDX3 (Homo sapiens, UniProt O00571).
T1 construct: gene DDX3X; full length, His-tagged DDX3
Briefly: SPR (Biacore T200) with immobilized purified His-DDX3; also malachite green ATPase inhibition at […]. The class given is binding.

SMILES strings stand for the structures. pKd: −log10 of the molar value.

T1 sequence (O00571 whole entry): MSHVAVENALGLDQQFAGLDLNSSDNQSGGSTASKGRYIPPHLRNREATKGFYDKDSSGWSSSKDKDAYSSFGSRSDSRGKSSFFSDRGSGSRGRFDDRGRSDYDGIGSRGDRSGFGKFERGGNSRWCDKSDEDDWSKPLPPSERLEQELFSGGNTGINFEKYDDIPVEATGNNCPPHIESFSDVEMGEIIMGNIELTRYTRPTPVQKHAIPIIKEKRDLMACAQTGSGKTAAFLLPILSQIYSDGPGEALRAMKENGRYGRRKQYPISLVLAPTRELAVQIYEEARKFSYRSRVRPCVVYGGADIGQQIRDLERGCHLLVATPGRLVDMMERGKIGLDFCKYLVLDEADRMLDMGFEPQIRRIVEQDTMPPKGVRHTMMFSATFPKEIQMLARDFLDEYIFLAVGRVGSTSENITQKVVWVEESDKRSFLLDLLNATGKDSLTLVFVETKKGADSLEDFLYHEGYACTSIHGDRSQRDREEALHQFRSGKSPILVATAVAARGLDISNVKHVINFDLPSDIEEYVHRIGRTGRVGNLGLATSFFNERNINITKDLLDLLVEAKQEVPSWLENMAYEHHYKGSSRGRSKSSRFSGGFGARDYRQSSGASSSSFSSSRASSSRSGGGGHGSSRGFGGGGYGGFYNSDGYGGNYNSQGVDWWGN

One may read the pKd as the negative decadic logarithm of the Kd, by convention in mol/L. Lower therefore signals a large Kd. Regarding `O=C(/C=C/c1ccc(O)cc1)Nc1ccc(O)cc1C(=O)O` [AVN A, Avenanthramide A], the pKd is 5.06.
